# Measured values from patent publication US6749850B1, “Methods, compositions and kits for promoting recovery from damage to the central nervous system” (The General Hospital Corporation, priority 1999, dated 2004).
# Legend:
# [1] = test system: rat stroke model (focal cerebral infarction, middle cerebral artery electrocoagulation); experiment: Example 1: sensorimotor behavioural tests after intracisternal treatment in rat stroke model; assay type: in vivo
# Method: In this example, fetal mouse neural stem cells (NSC) with or without basic fibroblast growth factor (bFGF) were administered intracisternally in a model of stroke recovery in rats. Male Sprague-Dawley rats, 300-350 grams, were handled for one week before surgery. They received an antibiotic, cefazolin sodium (40 mg/kg, i.p.), one day before stroke surgery. On the day of stroke surgery, animals were anesthetized by 2% halothane in a […]/oxygen mixture (2:1). Focal cerebral infarction, (stroke) was performed by proximal electrocoagulation of the middle cerebral artery, as described previously (Kawamata et al. (1999) Exp. Neurol. 158, 89-96; Tamura et al. (1981) J. Cereb. Blood Flow Metab. 1, 53-60). […] This technique produces a robust and reproducible infarct, or region of cell death, in the dorsolateral cerebral cortex and underlying striatum. Animals received another injection of cefazolin sodium (40 mg/kg, i.p.) immediately after surgery. They were then allowed to awaken from anesthesia.
# Twenty-four hours after stroke surgery, animals received an intracisternal injection of either: (1) vehicle, (2) NSC (10^6 cells), (3) bFGF (0.5 μg), or (4) NSC+bFGF. Intracisternal injection in 50 μl total volume was done through percutaneous injection into the cisterna magna under halothane anesthesia. This same procedure was repeated two days later so that animals received treatment on days 1 and 3 following stroke. Cyclosporin, an immunosuppressant, was administered at 10 mg/kg, i.p. for the duration of the experiment.
# The cerebral infarcts produced by the procedure cause sensorimotor dysfunction of the contralateral hindlimb and forelimb. For the next month following stroke, a number of neurological tests were done to assess sensorimotor function of the contralateral limbs. These tests include both the forelimb and hindlimb placing tests which test the animal's ability to place the limb on a tabletop in response to visual, tactile, proprioceptive, and whisker stimulation. […]
# [2] = test system: rat stroke model (focal cerebral infarction, middle cerebral artery electrocoagulation); experiment: Example 2: behavioural tests after intracerebral NSC and intracisternal bFGF in rat stroke model; assay type: in vivo; details: single administration one day after stroke
# Method: In a second experiment, NSC were injected directly into the brain into tissue surrounding focal strokes. bFGF was injected intracisternally, as before. In this experiment only one administration of NSC or bFGF was performed at one day after stroke.
# In this experiment, animals were handled for one week before surgery. In addition, they were trained on an additional test, the paw reaching test (see below) for 10 days before surgery. As before, they received cefazolin sodium (40 mg/kg, i.p.) before surgery. On the day of surgery, electrocoagulation of the proximal middle cerebral artery was done, as described previously (Kawamata et al. (1996) J. Cereb. Blood Flow Metab. 16, 542-547; Kawamata et al. (1997) Proc. Nat. Acad Sci. 94, 8179-8184; Kawamata et al. (1999) Exp. Neurol. 158, 89-96). They received another injection of cefazolin sodium, 40 mg/kg, i.p. after surgery.
# At one day after stroke, animals received either: (1) vehicle injection into periinfarct tissue, and vehicle injection into the cisterna magna, (2) NSC (10^6 cells) into periinfarct tissue and vehicle into the cisterna magna, (3) vehicle into periinfarct tissue and bFGF (0.5 μg) into the cisterna magna or (4) the combination NSC (10^6 cells) into periinfarct tissue and bFGF (0.5 μg) into the cisterna magna.
# These injections were done with a volume of 25 μl each under 2% halothane anesthesia. […]
# animal models of stroke = details: administered starting a day or more after stroke; cited from earlier work
# rat stroke model = details: BDNF administered conjointly with bone marrow cells; cited from earlier work
molecule,measurement,setting,value
"bFGF: basic fibroblast growth factor, a protein that supports survival and axonal outgrowth from neurons",recovery on limb placing tests (forelimb and hindlimb),"[1]; intracisternal on days 1 and 3 after stroke, NSC 10^6 cells, bFGF 0.5 μg, compared to placebo, FIGS. 1A-1B",significantly enhanced recovery compared to placebo
same,body swing test,"[1]; intracisternal on days 1 and 3 after stroke, compared to placebo, FIG. 1C",No differences
same,sensorimotor recovery of the contralateral limbs (summary),[1]; intracisternal starting one day after stroke,significantly enhance sensorimotor recovery
same,behavioral outcome overall (summary of tests),[2],improved behavioral outcome on some tests
same,recovery on forelimb and hindlimb placing tests,"[2]; NSC 10^6 cells periinfarct, bFGF 0.5 μg cisterna magna, compared to placebo, FIGS. 2A-2B",superiority in recovery
same,recovery on tests of sensorimotor function of the impaired limbs,animal models of stroke,recover more quickly and to a greater extent
"BDNF: polypeptide growth factor, administered conjointly with bone marrow cells in a cited study (Chen et al. 2000) (protein, UniProt P23560 19-247, looked up) Neurotrophic factor BDNF …: APMKEANIRGQGGLAYPGVRTHGTLESVNGPKAGSRGLTSLADTFEHVIEELLDEDQKVRPNEENNKDADLYTSRVMLSSQVPLEPPLLFLLEEYKNYLDAANMSMRVRRHSDPARRGELSVCDSISEWVTAADKKTAVDMSGGTVTVLEKVPVSKGQLKQYFYETKCNPMGYTKEGCRGIDKRHWNSQCRTTQSYVRALTMDSKKRIGWRFIRIDTSCVCTLTIKRGR",recovery in a rat stroke model,rat stroke model,improve recovery
